Test results reported in patent US20230086702A1, “SUBSTITUTED 2-AMINO-PYRAZOLYL-[1,2,4]TRIAZOLO[1,5A]PYRIDINE DERIVATIVES AND USE THEREOF” (The Johns Hopkins University, priority 2019, published 2023).

Tests used:
DLK = biological target: T1, DLK (Homo sapiens, UniProt Q12852); assay: DLK biochemical assay (TR-FRET, MKK7 phosphorylation)
T1 construct: 10 nM DLK, catalytic domain, Carna Biosiences; purchased Carna Biosciences ('Carna Biosiences' [sic])
T1 sequence (Q12852 125-366 limits assumed): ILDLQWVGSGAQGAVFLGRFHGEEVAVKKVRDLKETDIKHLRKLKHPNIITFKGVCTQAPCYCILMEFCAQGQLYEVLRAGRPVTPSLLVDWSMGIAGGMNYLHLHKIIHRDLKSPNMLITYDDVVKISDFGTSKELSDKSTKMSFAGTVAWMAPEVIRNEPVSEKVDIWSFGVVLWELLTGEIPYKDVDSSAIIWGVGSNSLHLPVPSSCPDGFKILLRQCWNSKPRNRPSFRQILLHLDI
Procedure, shortened: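 DLK catalytic domain (10 nM) phosphorylates His-MKK7 (15 nM) at 60 μM ATP for 90 min at RT in pH 7.5 Hepes buffer (final concentrations). Phospho-T275/S277 is detected by TR-FRET (Eu anti-phospho donor, XL665 anti-His acceptor) after 16 h at 37° C (1536 format) or 4° C (384 format).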

LZK = biological target: T2, LZK (Homo sapiens, UniProt O43283); assay: LZK biochemical assay (TR-FRET, MKK7 phosphorylation)
T2 construct: 10 nM LZK, catalytic domain, Carna Biosiences in assay buffer; purchased Carna Biosciences ('Carna Biosiences' [sic])
T2 sequence (O43283 168-409 limits assumed): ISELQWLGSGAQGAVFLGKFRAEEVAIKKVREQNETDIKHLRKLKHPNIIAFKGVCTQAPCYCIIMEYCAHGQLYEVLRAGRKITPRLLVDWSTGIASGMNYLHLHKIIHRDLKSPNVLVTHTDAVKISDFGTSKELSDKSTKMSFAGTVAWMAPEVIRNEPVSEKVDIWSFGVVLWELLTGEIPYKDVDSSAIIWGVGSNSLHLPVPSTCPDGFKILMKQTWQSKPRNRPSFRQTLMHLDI
Procedure, shortened: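 LZK catalytic domain (10 nM) phosphorylates His-MKK7 (15 nM) with 15 µM ATP, all final, for 90 min at RT in HEPES buffer pH 7.5 with MgCl2. Phospho-T275/S277 detected by TR-FRET (Eu anti-phospho donor, XL665 anti-His acceptor) after 16 h at 32 °C in EDTA stop buffer. Inhibition lowers the 665/Eu ratio.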

Structure (SMILES)	IC50 (DLK) [nM]	IC50 (LZK) [nM]
CC(C)C(c1ccc(C(F)(F)F)nc1)n1cc(-c2cc(-c3ccc(C(F)F)nc3)n3nc(N)nc3c2)cn1 (single isomer, unassigned) [II-72, 5-[6-(Difluoromethyl)pyridin-3-yl]-7-(1-{2-methyl-1-[6-(trifluoromethyl)pyridin-3-yl]propyl}-1H-pyrazol-4-yl)[1,2,4]triazolo[1,5-a]pyridin-2-amine]	16	17
CC(C)C(c1ccc(C(F)(F)F)nc1)n1cc(-c2cc(-c3ccc(C4CC(F)(F)C4)nc3)n3nc(N)nc3c2)cn1 (single isomer, unassigned) [II-74, 5-[6-(3,3-Difluorocyclobutyl)pyridin-3-yl]-7-(1-{2-methyl-1-[6-(trifluoromethyl)pyridin-3-yl]propyl}-1H-pyrazol-4-yl)[1,2,4]triazolo[1,5-a]pyridin-2-amine]	510	170
CC(C)C(c1ccc(C(F)(F)F)nc1)n1cc(-c2cc(-c3ccc(C4CC(F)(F)C4)nc3)n3nc(N)nc3c2)cn1 (single isomer, unassigned) [II-75, 5-[6-(3,3-Difluorocyclobutyl)pyridin-3-yl]-7-(1-{2-methyl-1-[6-(trifluoromethyl)pyridin-3-yl]propyl}-1H-pyrazol-4-yl)[1,2,4]triazolo[1,5-a]pyridin-2-amine]	27	15
Nc1nc2cc(-c3cnn(C(c4ccc(C(F)F)nc4)C4CCOCC4)c3)cc(-c3ccc(C(F)(F)F)nc3)n2n1 (single isomer, unassigned) [II-77, 7-(1-{[6-(Difluoromethyl)pyridin-3-yl](tetrahydro-2H-pyran-4-yl)methyl}-1H-pyrazol-4-yl)-5-[6-(trifluoromethyl)pyridin-3-yl][1,2,4]triazolo[1,5-a]pyridin-2-amine]	160	61
Nc1nc2cc(-c3cnn(C(c4ccc(C(F)F)nc4)C4CCOCC4)c3)cc(-c3ccc(C(F)(F)F)nc3)n2n1 (single isomer, unassigned) [II-78, 7-(1-{[6-(Difluoromethyl)pyridin-3-yl](tetrahydro-2H-pyran-4-yl)methyl}-1H-pyrazol-4-yl)-5-[6-(trifluoromethyl)pyridin-3-yl][1,2,4]triazolo[1,5-a]pyridin-2-amine]	5.2	5.3
CC(C)C(c1ccc(C(F)(F)F)nc1)n1cc(-c2cc(-c3ccc(C4(O)CCC4)nc3)n3nc(N)nc3c2)cn1 (single isomer, unassigned) [II-81, 1-{5-[2-Amino-7-(1-{2-methyl-1-[6-(trifluoromethyl)pyridin-3-yl]propyl}-1H-pyrazol-4-yl)[1,2,4]triazolo[1,5-a]pyridin-5-yl]pyridin-2-yl}cyclobutan-1-ol]	4	2.4
CC(C)C(c1ccc(C(F)(F)F)nc1)n1cc(-c2cc(-c3ccc(C4(O)CCC4)nc3)n3nc(N)nc3c2)cn1 (single isomer, unassigned) [II-82, 1-{5-[2-Amino-7-(1-{2-methyl-1-[6-(trifluoromethyl)pyridin-3-yl]propyl}-1H-pyrazol-4-yl)[1,2,4]triazolo[1,5-a]pyridin-5-yl]pyridin-2-yl}cyclobutan-1-ol]	42	42
CC[C@@H](c1ccccc1)n1cc(-c2cc(-c3cnn(C(C)C(F)(F)F)c3)c3nc(N)nn3c2)cn1 (single isomer, unassigned) [II-95]	5.6	40
CC[C@@H](c1ccccc1)n1cc(-c2cc(-c3cnn(C(C)C(F)(F)F)c3)c3nc(N)nn3c2)cn1 (single isomer, unassigned) [II-96]	17	60
CCC(c1ccc(C(F)(F)F)cc1)n1cc(-c2cc(-c3cnn(C)c3)c3nc(N)nn3c2)cn1 (single isomer, unassigned) [II-100, 8-(1-Methyl-1H-pyrazol-4-yl)-6-(1-{1-[4-(trifluoromethyl)phenyl]propyl}-1H-pyrazol-4-yl)[1,2,4]triazolo[1,5-a]pyridin-2-amine]	58	500
CCC(c1ccc(C(F)(F)F)cc1)n1cc(-c2cc(-c3cnn(C)c3)c3nc(N)nn3c2)cn1 (single isomer, unassigned) [II-101, 8-(1-Methyl-1H-pyrazol-4-yl)-6-(1-{1-[4-(trifluoromethyl)phenyl]propyl}-1H-pyrazol-4-yl)[1,2,4]triazolo[1,5-a]pyridin-2-amine]	6.8	110
CCC(c1ccc(N2CCOCC2)cc1)n1cc(-c2cc(-c3cnn(CC(F)(F)F)c3)c3nc(N)nn3c2)cn1 (single isomer, unassigned) [II-103, 6-(1-{1-[4-(Morpholin-4-yl)phenyl]propyl}-1H-pyrazol-4-yl)-8-[1-(2,2,2-trifluoroethyl)-1H-pyrazol-4-yl][1,2,4]triazolo[1,5-a]pyridin-2-amine]	64	160
CCC(c1ccc(N2CCOCC2)cc1)n1cc(-c2cc(-c3cnn(CC(F)(F)F)c3)c3nc(N)nn3c2)cn1 (single isomer, unassigned) [II-104, 6-(1-{1-[4-(Morpholin-4-yl)phenyl]propyl}-1H-pyrazol-4-yl)-8-[1-(2,2,2-trifluoroethyl)-1H-pyrazol-4-yl][1,2,4]triazolo[1,5-a]pyridin-2-amine]	6	51
CCC(c1ccc(C(F)F)nc1)n1cc(-c2cc(-c3cnn(CC(F)(F)F)c3)c3nc(N)nn3c2)cn1 (single isomer, unassigned) [II-106, 6-(1-{1-[6-(Difluoromethyl)pyridin-3-yl]propyl}-1H-pyrazol-4-yl)-8-[1-(2,2,2-trifluoroethyl)-1H-pyrazol-4-yl][1,2,4]triazolo[1,5-a]pyridin-2-amine]	40	47
CCC(c1ccc(C(F)F)nc1)n1cc(-c2cc(-c3cnn(CC(F)(F)F)c3)c3nc(N)nn3c2)cn1 (single isomer, unassigned) [II-107, 6-(1-{1-[6-(Difluoromethyl)pyridin-3-yl]propyl}-1H-pyrazol-4-yl)-8-[1-(2,2,2-trifluoroethyl)-1H-pyrazol-4-yl][1,2,4]triazolo[1,5-a]pyridin-2-amine]	4	10
CCC(c1ccc(C(F)(F)F)nc1)n1cc(-c2cc(-c3cnn(CC(F)F)c3)c3nc(N)nn3c2)cn1 (single isomer, unassigned) [II-109, 8-[1-(2,2-Difluoroethyl)-1H-pyrazol-4-yl]-6-(1-{1-[6-(trifluoromethyl)pyridin-3-yl]propyl}-1H-pyrazol-4-yl)[1,2,4]triazolo[1,5-a]pyridin-2-amine]	16	57
CCC(c1ccc(C(F)(F)F)nc1)n1cc(-c2cc(-c3cnn(CC(F)F)c3)c3nc(N)nn3c2)cn1 (single isomer, unassigned) [II-110, 8-[1-(2,2-Difluoroethyl)-1H-pyrazol-4-yl]-6-(1-{1-[6-(trifluoromethyl)pyridin-3-yl]propyl}-1H-pyrazol-4-yl)[1,2,4]triazolo[1,5-a]pyridin-2-amine]	2.2	9.7
CC[C@@H](c1ccc(C(F)(F)F)nc1)n1cc(-c2cc(-c3cnn(CC(F)(F)F)c3)c3nc(N)nn3c2)cn1 (single isomer, unassigned) [II-112, 8-[1-(2,2,2-trifluoroethyl)-1H-pyrazol-4-yl]-6-(1-{1-[6-(trifluoromethyl)pyridin-3-yl]propyl}-1H-pyrazol-4-yl)[1,2,4]triazolo[1,5-a]pyridin-2-amine]	4.7	17
